Experimental data reported in ChEMBL document CHEMBL4483862, “Open-source discovery of chemical leads for next-generation chemoprotective antimalarials” (2018).

System: Plasmodium berghei
Test: Luciferase/luciferin-expressing antifolate-resistant parasites were used to infect a culture of HepG2 cells that were pre-incubated with compounds. Infected hepatocytes emit light due to the luciferase reaction. Assay results are presented as the percent inhibition of light emission compared to control. […]
Format: functional
Conditions: sporozoite; for IC90: read-out: LUCIFERASE INFECTION ASSAY - IC90

Structure (SMILES) | IC90 | also measured
N#Cc1c(N2CCCC(O)C2)nc(N)c2c(N)nc3c(c12)CC(=O)N3C12CC3CC(CC(C3)C1)C2 (centres undefined) | > 10 µM | IC50 (HEPG2TOX_HILL_SLOPE 8.91, HEPG2TOX_R_SQUARED 0.422, PBLUC_HILL_SLOPE 4.43, PBLUC_R_SQUARED 0.134, read-out: LUCIFERASE INFECTION ASSAY - IC50): 6.8 µM
N#Cc1c(N)nc(Sc2ccc(Cl)cc2)c(C#N)c1-c1ccccc1Cl | > 8.31 µM | IC50 (HEPG2TOX_HILL_SLOPE 9.05, HEPG2TOX_R_SQUARED 0.0303, PBLUC_HILL_SLOPE 3.41, PBLUC_R_SQUARED 0.0674, read-out: LUCIFERASE INFECTION ASSAY - IC50): 7.69 µM
CCOC(=O)c1sc(S(C)(=O)=O)c2c1CC(C)(C)CC2=O | > 9.99 µM | IC50 (HEPG2TOX_HILL_SLOPE 8.99, HEPG2TOX_R_SQUARED 0.709, PBLUC_HILL_SLOPE 5.08, PBLUC_R_SQUARED 0.0136, read-out: LUCIFERASE INFECTION ASSAY - IC50): > 9.99 µM
CN(C)CCNc1cc(-c2cccs2)nc2ccccc12 | 4.22 µM | IC50 (HEPG2TOX_HILL_SLOPE 9.05, HEPG2TOX_R_SQUARED 0.795, PBLUC_HILL_SLOPE 12.9, PBLUC_R_SQUARED 0.598, read-out: LUCIFERASE INFECTION ASSAY - IC50): 3.56 µM
CCNC(=O)COc1ccc(/C=C/C(=O)c2ccc(N3CCCCC3)cc2)cc1OC | > 10 µM | IC50 (HEPG2TOX_HILL_SLOPE 9.05, HEPG2TOX_R_SQUARED 0.908, PBLUC_HILL_SLOPE 2.57, PBLUC_R_SQUARED 0.344, read-out: LUCIFERASE INFECTION ASSAY - IC50): 5.12 µM
CC(C)c1ccc(C(=O)N2CCC(CCCC3CCN(C(=O)c4ccc(C(C)C)cc4)CC3)CC2)cc1 | > 10 µM | IC50 (HEPG2TOX_HILL_SLOPE 8.83, HEPG2TOX_R_SQUARED 0.537, read-out: LUCIFERASE INFECTION ASSAY - IC50): > 10 µM
CN1C/C(=C/c2csnn2)C(=O)/C(=C/c2csnn2)C1 | 4.3 µM | IC50 (HEPG2TOX_HILL_SLOPE 8.98, HEPG2TOX_R_SQUARED 0.932, PBLUC_HILL_SLOPE 14.4, PBLUC_R_SQUARED 0.582, read-out: LUCIFERASE INFECTION ASSAY - IC50): 3.69 µM
Cc1ccc(-c2nc3c(s2)CN(C(=O)c2ccc4c(c2)OCO4)CC3)cc1 | > 8.72 µM | IC50 (HEPG2TOX_HILL_SLOPE 8.84, HEPG2TOX_R_SQUARED 0.538, PBLUC_HILL_SLOPE 2.18, PBLUC_R_SQUARED 0.0909, read-out: LUCIFERASE INFECTION ASSAY - IC50): 7.14 µM
O=C1/C(=C/c2ccc(F)cc2)COC/C1=C\c1ccc(F)cc1 | > 10.6 µM | IC50 (HEPG2TOX_HILL_SLOPE 8.86, HEPG2TOX_R_SQUARED 0.951, read-out: LUCIFERASE INFECTION ASSAY - IC50): > 10.6 µM
CCc1ccc(NC(=O)Cc2nc(-c3ccc4c(c3)CCCN4S(C)(=O)=O)cs2)cc1 | > 10 µM | IC50 (HEPG2TOX_HILL_SLOPE 9.08, HEPG2TOX_R_SQUARED 0.0527, PBLUC_HILL_SLOPE 1.74, PBLUC_R_SQUARED 0.25, read-out: LUCIFERASE INFECTION ASSAY - IC50): 5.76 µM
Cc1ccccc1-c1noc(-c2cc(-c3cccs3)[nH]n2)n1 | > 10 µM | IC50 (HEPG2TOX_HILL_SLOPE 8.85, HEPG2TOX_R_SQUARED 0.0358, read-out: LUCIFERASE INFECTION ASSAY - IC50): > 10 µM
O=C(/C=C/c1ccncc1)Nc1ccc(Oc2ccccc2)cc1 | 6.66 µM | IC50 (HEPG2TOX_HILL_SLOPE 9.03, HEPG2TOX_R_SQUARED 0.239, PBLUC_HILL_SLOPE 3.67, PBLUC_R_SQUARED 0.501, read-out: LUCIFERASE INFECTION ASSAY - IC50): 3.66 µM
C/C(=N\Nc1ccnc2cc(Cl)ccc12)c1ccc(-n2ccnc2)cc1 | > 10 µM | IC50 (HEPG2TOX_HILL_SLOPE 8.87, HEPG2TOX_R_SQUARED 0.252, read-out: LUCIFERASE INFECTION ASSAY - IC50): > 10 µM
COc1ccc(-c2cnn3c(N)c(-c4cccc(Cl)c4)cnc23)cc1OC | > 8.67 µM | IC50 (HEPG2TOX_HILL_SLOPE 8.92, HEPG2TOX_R_SQUARED 0.943, PBLUC_HILL_SLOPE 1.73, PBLUC_R_SQUARED 0.738, read-out: LUCIFERASE INFECTION ASSAY - IC50): 2.75 µM
Cc1cccc(C(=O)Nc2nc3ccccn3c2C(=O)NC2CCCC2)c1 | 4.69 µM | IC50 (HEPG2TOX_HILL_SLOPE 8.83, HEPG2TOX_R_SQUARED 0.45, PBLUC_HILL_SLOPE 2.41, PBLUC_R_SQUARED 0.415, read-out: LUCIFERASE INFECTION ASSAY - IC50): 1.88 µM
CC(C)Oc1cccc(Nc2nccc3[nH]c(-c4ccccc4)cc23)c1 | 7.93 µM | IC50 (HEPG2TOX_HILL_SLOPE 8.91, HEPG2TOX_R_SQUARED 0.686, PBLUC_HILL_SLOPE 1.92, PBLUC_R_SQUARED 0.493, read-out: LUCIFERASE INFECTION ASSAY - IC50): 2.53 µM

Structure (SMILES) | IC90 | also measured
Cc1ccc(CN2CCC3(CC2)C(=O)N(C(C)C)C(=O)N3CCc2ccccc2)o1 | > 8.06 µM | IC50 (HEPG2TOX_HILL_SLOPE 8.85, HEPG2TOX_R_SQUARED 0.516, read-out: LUCIFERASE INFECTION ASSAY - IC50): > 8.06 µM
COc1ccc(-c2nonc2NC(=O)c2sc3cc(C)ccc3c2Cl)cc1 | 6.5 µM | IC50 (HEPG2TOX_HILL_SLOPE 8.9, HEPG2TOX_R_SQUARED 0.644, PBLUC_HILL_SLOPE 6.34, PBLUC_R_SQUARED 0.0844, read-out: LUCIFERASE INFECTION ASSAY - IC50): 4.6 µM
CC1(C(=O)N2CCN(c3ccc(C(F)(F)F)cn3)CC2)Cc2ccccc2C(=O)O1 (centres undefined) | > 10 µM | IC50 (HEPG2TOX_HILL_SLOPE 9.02, HEPG2TOX_R_SQUARED 0.896, PBLUC_HILL_SLOPE 11.4, 1.60, PBLUC_R_SQUARED 0.0115, 0.213, read-out: LUCIFERASE INFECTION ASSAY - IC50): 7.88 µM
Cc1cc(=O)[nH]n(-c2ccccc2)c1=O | 8.7 µM | IC50 (HEPG2TOX_HILL_SLOPE 8.84, HEPG2TOX_R_SQUARED 0.75, PBLUC_HILL_SLOPE 7.32, PBLUC_R_SQUARED 0.521, read-out: LUCIFERASE INFECTION ASSAY - IC50): 6.44 µM
Oc1c(Cl)cc(Cl)cc1/C=N/NC(=S)NC1CCCCC1 | 9.37 µM | IC50 (HEPG2TOX_HILL_SLOPE 8.84, HEPG2TOX_R_SQUARED 0.571, PBLUC_HILL_SLOPE 15.3, PBLUC_R_SQUARED 0.312, read-out: LUCIFERASE INFECTION ASSAY - IC50): 8.11 µM
CC(C)(C)NC(=S)N/N=C/c1cc([N+](=O)[O-])ccc1O | 11.1 µM | IC50 (HEPG2TOX_HILL_SLOPE 9.08, HEPG2TOX_R_SQUARED 0.437, PBLUC_HILL_SLOPE 15.5, PBLUC_R_SQUARED 0.332, read-out: LUCIFERASE INFECTION ASSAY - IC50): 9.61 µM
CCc1cc[n+](CC(=O)Nc2cc3oc4ccccc4c3cc2OC)cc1 | 9.36 µM | IC50 (HEPG2TOX_HILL_SLOPE 8.94, HEPG2TOX_R_SQUARED 0.562, PBLUC_HILL_SLOPE 18.1, PBLUC_R_SQUARED 0.422, read-out: LUCIFERASE INFECTION ASSAY - IC50): 8.29 µM
COc1ccc(Nc2nccc3[nH]c(-c4ccsc4)cc23)cc1OC | 7.38 µM | IC50 (HEPG2TOX_HILL_SLOPE 8.96, HEPG2TOX_R_SQUARED 0.789, PBLUC_HILL_SLOPE 2.87, PBLUC_R_SQUARED 0.796, read-out: LUCIFERASE INFECTION ASSAY - IC50): 3.43 µM
c1ccc2c(-n3ccnc3)nc(-c3ccsc3)nc2c1 | 7.73 µM | IC50 (HEPG2TOX_HILL_SLOPE 9, HEPG2TOX_R_SQUARED 0.711, PBLUC_HILL_SLOPE 3.68, 14.1, PBLUC_R_SQUARED 0.615, 0.129, read-out: LUCIFERASE INFECTION ASSAY - IC50): 4.26 µM
CCOC(=O)c1cc(C#N)c(Sc2nnc(SCC3CC3)s2)nc1C(F)(F)F | > 7.39 µM | IC50 (HEPG2TOX_HILL_SLOPE 8.92, HEPG2TOX_R_SQUARED 0.488, read-out: LUCIFERASE INFECTION ASSAY - IC50): > 7.39 µM
COc1ccc(CN2C(=O)N(C)C3(CCN(Cc4ccc(N5CCCC5)cc4)CC3)C2=O)cc1 | > 7.13 µM | IC50 (HEPG2TOX_HILL_SLOPE 9.02, HEPG2TOX_R_SQUARED 0.802, PBLUC_HILL_SLOPE 4.22, PBLUC_R_SQUARED 0.106, read-out: LUCIFERASE INFECTION ASSAY - IC50): 5.16 µM
O=C(CSc1ncnc2sc(-c3ccccc3)cc12)NCc1ccc(F)cc1 | > 10 µM | IC50 (HEPG2TOX_HILL_SLOPE 9.03, HEPG2TOX_R_SQUARED 0.325, PBLUC_HILL_SLOPE 19.9, PBLUC_R_SQUARED 0.0271, read-out: LUCIFERASE INFECTION ASSAY - IC50): 9.7 µM
CC(C)(C)c1nc2ccc(NC(=O)c3ccc(Cl)c(S(=O)(=O)NC4CC4)c3)cc2[nH]1 | > 10 µM | IC50 (HEPG2TOX_HILL_SLOPE 8.98, HEPG2TOX_R_SQUARED 0.824, PBLUC_HILL_SLOPE 3.11, PBLUC_R_SQUARED 0.121, read-out: LUCIFERASE INFECTION ASSAY - IC50): 7.36 µM
CC(=O)Nc1ccc(-c2cnc3ccc(-c4cccc(F)c4)nn23)cc1 | 3.53 µM | IC50 (HEPG2TOX_HILL_SLOPE 8.87, HEPG2TOX_R_SQUARED 0.791, PBLUC_HILL_SLOPE 12.1, PBLUC_R_SQUARED 0.742, read-out: LUCIFERASE INFECTION ASSAY - IC50): 2.95 µM
Cc1ccc(N2C(=O)C=CC2=O)c(C)c1 | 6.84 µM | IC50 (HEPG2TOX_HILL_SLOPE 8.83, HEPG2TOX_R_SQUARED 0.656, PBLUC_HILL_SLOPE 7.12, PBLUC_R_SQUARED 0.655, read-out: LUCIFERASE INFECTION ASSAY - IC50): 5.02 µM
Clc1ccc(CN2CCN(c3ncnc4sccc34)CC2)s1 | > 10 µM | IC50 (HEPG2TOX_HILL_SLOPE 8.99, HEPG2TOX_R_SQUARED 0.725, PBLUC_HILL_SLOPE 4.78, PBLUC_R_SQUARED 0.254, read-out: LUCIFERASE INFECTION ASSAY - IC50): 8.3 µM
